The NIST ThermoML archive (doi:10.1016/j.fluid.2014.09.020)

Test: mn = molality of the nth substance listed, in mol/kg
Settings: 101 kPa, Liquid; for viscosity: Capillary tube (Ostwald / Ubbelohde) method; for electrical conductivity: Direct current cell with electrodes; for mass density: Vibrating tube method

CCC[N+]1(C)CCCCC1.[Br-] [1-methyl-1-propylpiperidinium bromide] + O
Settings	electrical conductivity [S/m]	mass density [kg/m3]	viscosity [mPa·s]
293.15 K, m1 = 0.2501	1.61	1008.72	1.291
293.15 K, m1 = 0.5	2.44	1018.24	1.402
293.15 K, m1 = 0.75	3.08	1027.42	1.529
293.15 K, m1 = 0.9998	3.57	1036.22	1.669
293.15 K, m1 = 1.25	3.91	1044.44	1.84
293.15 K, m1 = 1.5	4.14	1052.29	2.03
293.15 K, m1 = 1.75	4.29	1059.77	2.216
293.15 K, m1 = 2.001	4.38	1066.77	2.419
293.15 K, m1 = 2.2	4.41	1072.13	2.604
293.15 K, m1 = 2.4	4.44	1077.21	2.792
298.15 K, m1 = 0.2501	1.75	1007.5	1.178
298.15 K, m1 = 0.5	2.64	1016.88	1.259
298.15 K, m1 = 0.75	3.33	1025.92	1.356
298.15 K, m1 = 0.9998	3.86	1034.59	1.466
298.15 K, m1 = 1.25	4.23	1042.69	1.607
298.15 K, m1 = 1.5	4.48	1050.42	1.769
298.15 K, m1 = 1.75	4.65	1057.79	1.922
298.15 K, m1 = 2.001	4.76	1064.7	2.091
298.15 K, m1 = 2.2	4.81	1069.98	2.249
298.15 K, m1 = 2.4	4.85	1074.98	2.408
303.15 K, m1 = 0.2501	1.9	1006.09	1.044
303.15 K, m1 = 0.5	2.83	1015.33	1.116
303.15 K, m1 = 0.75	3.57	1024.23	1.203
303.15 K, m1 = 0.9998	4.14	1032.75	1.302
303.15 K, m1 = 1.25	4.54	1040.75	1.424
303.15 K, m1 = 1.5	4.82	1048.38	1.559
303.15 K, m1 = 1.75	5.04	1055.64	1.688
303.15 K, m1 = 2.001	5.18	1062.46	1.827
303.15 K, m1 = 2.2	5.24	1067.67	1.951
303.15 K, m1 = 2.4	5.3	1072.61	2.073
308.15 K, m1 = 0.2501	2.04	1004.66	0.9225
308.15 K, m1 = 0.5	3.03	1013.72	0.9723
308.15 K, m1 = 0.75	3.82	1022.62	1.037
308.15 K, m1 = 0.9998	4.43	1030.82	1.113
308.15 K, m1 = 1.25	4.86	1038.67	1.206
308.15 K, m1 = 1.5	5.16	1046.1	1.311
308.15 K, m1 = 1.75	5.4	1053.72	1.417
308.15 K, m1 = 2.001	5.57	1060.11	1.53
308.15 K, m1 = 2.2	5.65	1065.32	1.629
308.15 K, m1 = 2.4	5.72	1070.23	1.728

CCCC[N+]1(C)CCCCC1.[Br-] [N-butyl-N-methylpiperidinium bromide] + O
Settings	electrical conductivity [S/m]	mass density [kg/m3]	viscosity [mPa·s]
293.15 K, m1 = 0.25	1.58	1008.15	1.271
293.15 K, m1 = 0.5006	2.29	1017.18	1.451
293.15 K, m1 = 0.7499	2.83	1025.78	1.631
293.15 K, m1 = 0.9999	3.23	1034.01	1.819
293.15 K, m1 = 1.25	3.5	1041.71	2.004
293.15 K, m1 = 1.5	3.66	1049.03	2.199
293.15 K, m1 = 1.75	3.77	1055.94	2.422
293.15 K, m1 = 2	3.83	1062.38	2.663
293.15 K, m1 = 2.2	3.85	1067.29	2.863
293.15 K, m1 = 2.4	3.87	1071.91	3.084
298.15 K, m1 = 0.25	1.64	1006.6	1.114
298.15 K, m1 = 0.5006	2.44	1015.55	1.283
298.15 K, m1 = 0.7499	3.04	1024.1	1.442
298.15 K, m1 = 0.9999	3.49	1032.29	1.598
298.15 K, m1 = 1.25	3.78	1039.86	1.75
298.15 K, m1 = 1.5	3.96	1047.06	1.907
298.15 K, m1 = 1.75	4.08	1053.87	2.087
298.15 K, m1 = 2	4.15	1060.17	2.287
298.15 K, m1 = 2.2	4.17	1064.99	2.457
298.15 K, m1 = 2.4	4.2	1069.52	2.649
303.15 K, m1 = 0.25	1.77	1004.71	0.9885
303.15 K, m1 = 0.5006	2.61	1013.61	1.133
303.15 K, m1 = 0.7499	3.26	1022.18	1.266
303.15 K, m1 = 0.9999	3.75	1030.35	1.394
303.15 K, m1 = 1.25	4.09	1037.65	1.528
303.15 K, m1 = 1.5	4.32	1044.94	1.67
303.15 K, m1 = 1.75	4.48	1051.69	1.812
303.15 K, m1 = 2	4.57	1057.79	1.972
303.15 K, m1 = 2.2	4.6	1062.59	2.119
303.15 K, m1 = 2.4	4.63	1066.98	2.279
308.15 K, m1 = 0.25	1.86	1002.93	0.882
308.15 K, m1 = 0.5006	2.77	1011.89	0.98
308.15 K, m1 = 0.7499	3.47	1020.33	1.078
308.15 K, m1 = 0.9999	4.01	1028.69	1.179
308.15 K, m1 = 1.25	4.39	1035.69	1.282
308.15 K, m1 = 1.5	4.64	1043.08	1.392
308.15 K, m1 = 1.75	4.82	1049.51	1.511
308.15 K, m1 = 2	4.92	1055.41	1.639
308.15 K, m1 = 2.2	4.96	1060.23	1.749
308.15 K, m1 = 2.4	4.99	1064.28	1.868

CC[N+]1(C)CCCCC1.[Br-] [N-ethyl-N-methylpiperidinium bromide] + O
Settings	electrical conductivity [S/m]	mass density [kg/m3]	viscosity [mPa·s]
293.15 K, m1 = 0.2501	1.67	1009.34	1.412
293.15 K, m1 = 0.5	2.69	1019.49	1.432
293.15 K, m1 = 0.75	3.46	1029.24	1.492
293.15 K, m1 = 0.9992	4.01	1038.65	1.587
293.15 K, m1 = 1.25	4.41	1047.4	1.707
293.15 K, m1 = 1.5	4.68	1055.5	1.849
293.15 K, m1 = 1.75	4.84	1063.82	2.021
293.15 K, m1 = 1.998	4.94	1071.67	2.208
293.15 K, m1 = 2.2	5.03	1077.12	2.361
293.15 K, m1 = 2.4	5.12	1082.45	2.521
298.15 K, m1 = 0.2501	1.94	1007.59	1.254
298.15 K, m1 = 0.5	2.92	1017.73	1.274
298.15 K, m1 = 0.75	3.72	1027.52	1.325
298.15 K, m1 = 0.9992	4.36	1036.99	1.401
298.15 K, m1 = 1.25	4.82	1045.62	1.516
298.15 K, m1 = 1.5	5.14	1053.61	1.655
298.15 K, m1 = 1.75	5.42	1061.89	1.787
298.15 K, m1 = 1.998	5.61	1069.59	1.932
298.15 K, m1 = 2.2	5.68	1074.97	2.069
298.15 K, m1 = 2.4	5.73	1080.2	2.2
303.15 K, m1 = 0.2501	2.02	1005.68	1.038
303.15 K, m1 = 0.5	3.08	1015.67	1.091
303.15 K, m1 = 0.75	3.95	1025.8	1.161
303.15 K, m1 = 0.9992	4.65	1034.64	1.248
303.15 K, m1 = 1.25	5.15	1043.44	1.349
303.15 K, m1 = 1.5	5.5	1051.59	1.46
303.15 K, m1 = 1.75	5.81	1059.87	1.583
303.15 K, m1 = 1.998	6.02	1067.36	1.712
303.15 K, m1 = 2.2	6.09	1072.73	1.82
303.15 K, m1 = 2.4	6.15	1077.82	1.931
308.15 K, m1 = 0.2501	2.24	1003.67	0.8791
308.15 K, m1 = 0.5	3.29	1013.78	0.9294
308.15 K, m1 = 0.75	4.2	1023.78	0.9953
308.15 K, m1 = 0.9992	4.98	1032.63	1.074
308.15 K, m1 = 1.25	5.54	1041.4	1.163
308.15 K, m1 = 1.5	5.93	1049.3	1.26
308.15 K, m1 = 1.75	6.34	1057.7	1.363
308.15 K, m1 = 1.998	6.61	1064.48	1.469
308.15 K, m1 = 2.2	6.66	1070.15	1.554
308.15 K, m1 = 2.4	6.69	1075.12	1.639
